Test results as given in ChEMBL document CHEMBL1142619, “Three new flavonol galloylglycosides from leaves of Acacia confusa” (J Nat Prod, 2000).
In brackets after ≈: the same amount, converted by molar mass.

These compounds were tested on Artemia salina (assay: Toxicity in Artemia salina assessed as inhibition of egg hatching after 48 hrs).
Format: organism-based
Compound `COc1cc(O)c2c(=O)c(O[C@H]3O[C@H](C)[C@@H](O)[C@H](OC(=O)c4cc(O)c(O)c(O)c4)[C@@H]3O)c(-c3cc(O)c(O)c(O)c3)oc2c1` has an IC50 of 50 µg/mL (≈ 79.3 µM).
Compound `C[C@H]1O[C@H](Oc2c(-c3cc(O)c(O)c(O)c3)oc3cc(O)cc(O)c3c2=O)[C@@H](O)[C@@H](OC(=O)c2cc(O)c(O)c(O)c2)[C@@H]1O` has an IC50 of 64 µg/mL (≈ 104 µM).
In the case of `C[C@H]1O[C@H](Oc2c(-c3cc(O)c(O)c(O)c3)oc3cc(O)cc(O)c3c2=O)[C@@H](OC(=O)c2cc(O)c(O)c(O)c2)[C@@H](O)[C@@H]1O`, the IC50 is reported as 75 µg/mL (≈ 122 µM).
In the case of `COc1cc(O)c2c(=O)c(O[C@H]3O[C@H](C)[C@@H](O)[C@H](O)[C@@H]3OC(=O)c3cc(O)c(O)c(O)c3)c(-c3cc(O)c(O)c(O)c3)oc2c1`, the IC50 is reported as 89 µg/mL (≈ 141 µM).
